Measured values taken from PubChem BioAssay AID330 (DTP/NCI, 2004).
“And” between values parts separate entries of the source, which are not always exact repeats. Equal entries are not always repeated. Inconclusive results and toxic doses are left out. The calls were made as follows: active = survival T/C of 150% or more; inactive = T/C below 125% in these data.

Tested on: P388 leukemia ip, CD2F1 mice, survival T/C
Assay: NCI In Vivo Anticancer Drug Screen. Data for tumor model P388 Leukemia (intraperitoneal) in CD2F1 (CDF1) mice
Conditions: endpoint: median survival time, higher = longer survival
Outline: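 Mice carrying the transplanted tumor received test compound or vehicle. Survival was recorded in each group, and the value is the treated-group measurement divided by that of the vehicle-treated control group.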

[1] = dose: 60.0 mg/kg/injection, schedule: Q01DX005 (ip), vehicle: saline with Tween-80
[2] = dose: 120.0 mg/kg/injection, schedule: Q01DX005 (ip), vehicle: saline with Tween-80
[3] = dose: 240.0 mg/kg/injection, schedule: Q01DX005 (ip), vehicle: saline with Tween-80
[4] = dose: 50.0 mg/kg/injection, schedule: Q01DX009 (ip), vehicle: Klucel (hydroxypropylcellulose) (HPC)
[5] = dose: 100.0 mg/kg/injection, schedule: Q01DX009 (ip), vehicle: Klucel (hydroxypropylcellulose) (HPC)
[6] = dose: 200.0 mg/kg/injection, schedule: Q01DX009 (ip), vehicle: Klucel (hydroxypropylcellulose) (HPC)
[7] = dose: 50.0 mg/kg/injection, schedule: Q01DX005 (ip), vehicle: saline with Tween-80
[8] = dose: 100.0 mg/kg/injection, schedule: Q01DX005 (ip), vehicle: saline with Tween-80
[9] = dose: 200.0 mg/kg/injection, schedule: Q01DX005 (ip), vehicle: saline with Tween-80

Measured: T/C

[Se]c1nccn2cnnc12
inactive: dose: 1.56 mg/kg/injection, schedule: Q01DX001 (ip), vehicle: saline 99 % of control and 101 % of control | dose: 3.12 mg/kg/injection, schedule: Q01DX001 (ip), vehicle: saline 100 % of control and 96 % of control | dose: 6.25 mg/kg/injection, schedule: Q01DX001 (ip), vehicle: saline 99 % of control and 105 % of control | dose: 12.5 mg/kg/injection, schedule: Q01DX001 (ip), vehicle: saline 103 % of control and 109 % of control

NC1(O)C(=O)NC(=O)NC1=O
inactive: dose: 60.0 mg/kg/injection, schedule: Q01DX005 (ip), vehicle: saline 101 % of control | dose: 120.0 mg/kg/injection, schedule: Q01DX005 (ip), vehicle: saline 93 % of control | dose: 240.0 mg/kg/injection, schedule: Q01DX005 (ip), vehicle: saline 88 % of control

CCc1nc(N)nc(N)c1-c1ccc(Cl)c(S(=O)(=O)O)c1
inactive: [1] 103 % of control | [2] 98 % of control | [3] 98 % of control

C=CC[n+]1ccc2ccccc2c1
inactive: dose: 25.0 mg/kg/injection, schedule: Q01DX009 (ip), vehicle: saline sonified 90 % of control | dose: 50.0 mg/kg/injection, schedule: Q01DX009 (ip), vehicle: saline sonified 90 % of control | dose: 100.0 mg/kg/injection, schedule: Q01DX009 (ip), vehicle: saline sonified 95 % of control

CCOC(=O)c1cnc(Sc2ccc([N+](=O)[O-])cc2[N+](=O)[O-])nc1N
inactive: dose: 100.0 mg/kg/injection, schedule: Q04DX003 (ip), vehicle: saline 93 % of control | dose: 200.0 mg/kg/injection, schedule: Q04DX003 (ip), vehicle: saline 100 % of control | dose: 400.0 mg/kg/injection, schedule: Q04DX003 (ip), vehicle: saline 98 % of control

CCOC(=O)c1c(C)[nH]c2c(-c3ccccc3)c3cc(Cl)ccc3nc12
inactive: [4] 103 % of control | [5] 109 % of control | [6] 104 % of control | dose: 400.0 mg/kg/injection, schedule: Q01DX009 (ip), vehicle: Klucel (hydroxypropylcellulose) (HPC) 99 % of control

Cn1nc2c(cc1=O)Cc1ccccc1-2
inactive: [7] 103 % of control | [8] 98 % of control | [9] 101 % of control

COc1cccc2c1C(=O)c1c(O)c3c(c(O)c1C2=O)C[C@@](O)(C(C)=O)C[C@@H]3OC1CC(NCC(c2ccccc2)c2ccccc2)C(O)C(C)O1 (stereo not given in full)
inactive: dose: 6.25 mg/kg/injection, schedule: Q04DX003 (ip), vehicle: water 100 % of control | dose: 12.5 mg/kg/injection, schedule: Q04DX003 (ip), vehicle: water 101 % of control | dose: 25.0 mg/kg/injection, schedule: Q04DX003 (ip), vehicle: water 105 % of control | dose: 50.0 mg/kg/injection, schedule: Q04DX003 (ip), vehicle: water 110 % of control | dose: 100.0 mg/kg/injection, schedule: Q04DX003 (ip), vehicle: water 117 % of control

CC(C)(C)c1ccc(N)c(C(O)(C(F)(F)F)C(F)(F)F)c1
inactive: dose: 30.0 mg/kg/injection, schedule: Q01DX005 (ip), vehicle: saline with Tween-80 100 % of control and 90 % of control

C=CC(C)(O)/C=C/C=C(\C)C(CC1OC1(C)C)OC(=O)/C(C)=C\C (stereo not given)
inactive: [4] 95 % of control | [5] 107 % of control

Oc1cc(O)c(-c2c(O)cc(O)cc2O)c(O)c1 (tested in a mixture with another compound)
inactive: dose: 1.56 mg/kg/injection, schedule: Q01DX005 (ip), vehicle: saline 97 % of control | dose: 3.12 mg/kg/injection, schedule: Q01DX005 (ip), vehicle: saline 106 % of control | dose: 6.25 mg/kg/injection, schedule: Q01DX005 (ip), vehicle: saline 111 % of control | dose: 12.5 mg/kg/injection, schedule: Q01DX005 (ip), vehicle: saline 101 % of control | dose: 25.0 mg/kg/injection, schedule: Q01DX005 (ip), vehicle: saline 96 % of control | dose: 50.0 mg/kg/injection, schedule: Q01DX005 (ip), vehicle: saline 108 % of control

CN(C)C(=O)Nc1nc2cc(Cl)c(Cl)cc2[nH]1
inactive: dose: 200.0 mg/kg/injection, schedule: Q04DX003 (oral), vehicle: saline with Tween-80 102 % of control | dose: 400.0 mg/kg/injection, schedule: Q04DX003 (oral), vehicle: saline with Tween-80 117 % of control | dose: 800.0 mg/kg/injection, schedule: Q04DX003 (oral), vehicle: saline with Tween-80 112 % of control | dose: 1600.0 mg/kg/injection, schedule: Q04DX003 (oral), vehicle: saline with Tween-80 121 % of control

O=C(CCBr)c1ccc(Cl)cc1
inactive: dose: 25.0 mg/kg/injection, schedule: Q04DX003 (ip), vehicle: saline with Tween-80 107 % of control | dose: 50.0 mg/kg/injection, schedule: Q04DX003 (ip), vehicle: saline with Tween-80 103 % of control | dose: 100.0 mg/kg/injection, schedule: Q04DX003 (ip), vehicle: saline with Tween-80 100 % of control

O/N=C1/C(=N/O)N(c2ccccc2)CN1c1ccccc1
inactive: dose: 7.5 mg/kg/injection, schedule: Q01DX005 (ip), vehicle: Klucel (hydroxypropylcellulose) (HPC) 102 % of control | dose: 15.0 mg/kg/injection, schedule: Q01DX005 (ip), vehicle: Klucel (hydroxypropylcellulose) (HPC) 95 % of control | dose: 30.0 mg/kg/injection, schedule: Q01DX005 (ip), vehicle: Klucel (hydroxypropylcellulose) (HPC) 98 % of control

COC(=O)c1[se]c(=[Se])[se]c1C(=O)OC
inactive: dose: 200.0 mg/kg/injection, schedule: Q01DX001 (ip), vehicle: Klucel (hydroxypropylcellulose) (HPC) 88 % of control

CC12CCC3C(CCC4=CC(OC5OCC(O)C(O)C5O)CCC43C=O)C1(O)CCC2C1=CC(=O)OC1 (stereo not given)
inactive: dose: 1.0 mg/kg/injection, schedule: Q01DX009 (ip), vehicle: Klucel (hydroxypropylcellulose) (HPC) 99 % of control | dose: 2.0 mg/kg/injection, schedule: Q01DX009 (ip), vehicle: Klucel (hydroxypropylcellulose) (HPC) 105 % of control | dose: 4.0 mg/kg/injection, schedule: Q01DX009 (ip), vehicle: Klucel (hydroxypropylcellulose) (HPC) 97 % of control | dose: 8.0 mg/kg/injection, schedule: Q01DX009 (ip), vehicle: Klucel (hydroxypropylcellulose) (HPC) 108 % of control

O=C1c2ccccc2C(=O)C1c1ccc2c(ccc3ccccc32)n1
inactive: dose: 50.0 mg/kg/injection, schedule: Q01DX005 (ip), vehicle: Klucel (hydroxypropylcellulose) (HPC) 98 % of control | dose: 100.0 mg/kg/injection, schedule: Q01DX005 (ip), vehicle: Klucel (hydroxypropylcellulose) (HPC) 88 % of control | dose: 200.0 mg/kg/injection, schedule: Q01DX005 (ip), vehicle: Klucel (hydroxypropylcellulose) (HPC) 96 % of control

CC1(C)Cc2nn3c(c2C(=O)O1)CC(c1ccccc1)c1ccccc1-3 (stereo not given)
inactive: dose: 100.0 mg/kg/injection, schedule: Q01DX001 (ip), vehicle: saline with Tween-80 90 % of control | dose: 200.0 mg/kg/injection, schedule: Q01DX001 (ip), vehicle: saline with Tween-80 89 % of control | dose: 400.0 mg/kg/injection, schedule: Q01DX001 (ip), vehicle: saline with Tween-80 96 % of control

CC12Cc3cn[nH]c3CC1CCC1C2CCC2(C)C1CCC2(C)O (stereo not given)
inactive: dose: 100.0 mg/kg/injection, schedule: Q04DX002 (ip), vehicle: saline 98 % of control | dose: 200.0 mg/kg/injection, schedule: Q04DX002 (ip), vehicle: saline 100 % of control | dose: 400.0 mg/kg/injection, schedule: Q04DX002 (ip), vehicle: saline 97 % of control

CC(C)(C)OC(=O)NC(CCCCNC(=O)C(F)(F)F)C(=O)O (stereo not given)
inactive: [4] 108 % of control | [5] 104 % of control | [6] 102 % of control

O=C(c1ccccc1)c1cc(Cl)ccc1NCC(O)COc1ccc(Cl)cc1 (stereo not given)
inactive: [1] 93 % of control | [2] 89 % of control | [3] 88 % of control

CSc1nc(NC2OC(CO)C(O)C(O)C2O)c(C(=O)CCl)c(=O)n1C (stereo not given)
inactive: [7] 93 % of control | [8] 91 % of control | [9] 90 % of control
